In brackets after ≈: the same amount, converted by molar mass. Several values for one entry are separate records, joined by “and”; a condition that tells them apart may be missing. Equal entries are not always repeated. Where two headings read alike, the source gives them in different places.
Experiments:
[1] = Cytotoxicity evaluation by MTT assay in Vero cells; format: cell-based, African green monkey; settings: African green monkey
Description: (§1) The cytotoxicity of ethanolic extracts of stems, leaves, fractions, and substances isolated from the C. americana species was evaluated by the colorimetric MTT method in Vero cell lines (derived from African green monkey kidneys) and MRC-5 (derived from normal human lung tissue).
(§2) Cell suspensions (Vero and MRC-5) were distributed in 96-well microplates containing 6.0 × 10^4 cells/well. The plates were incubated in a humidified 5% CO2 atmosphere at 37 °C for 24 h. Samples solubilized in dimethyl sulfoxide (DMSO) were diluted in culture medium supplemented with 1% SFB [48, 49]. Substance dilutions ranged from 800 to 0.125 µg/mL. After the formation of the cell monolayer on the surface of the wells, the culture medium was removed, and 100 μL of diluted sample solutions along with 100 μL of 1% SFB-enriched culture medium were added, and the plates were incubated under the same atmospheric condition. Seventy-two hours after the addition of samples, the culture medium was removed, and 28.0 μL of MTT solution (2.0 mg/mL in PBS) was added to each well, and the plates were incubated again for 120 min. At the end of this period, 132 μL of DMSO was added to all wells, and the plates were shaken on a plate shaker for 15 min to dissolve the formed formazan. Formazan quantification obtained by reducing tetrazolium salt in viable cells was performed on a Victor^TM X3 microplate reader® (PerkinElmer, Waltham, MA, USA) using the WorkOut 2.5 software at 490 nm. Cell multiplication was compared with cell control. Cell toxicity was expressed in terms of 50% cytotoxic concentration (CC50). The cytotoxic percentage was calculated as [(A-B)/A] × 100, where A and B are the optical densities at 490 nm (OD490) from the wells where untreated (A) and treated (B) cells are present, respectively.
(§3) Data from cytotoxicity and antiviral assays were evaluated according to their means and standard deviations. […] These analyses were performed using the GraphPad Prism 5.04 statistical package® (GraphPad Software, Boston, MA, USA).

Zika virus [2] = assay: Screening for anti-Zika virus activity by MTT colorimetric technique in infected Vero cells; format: cell-based; settings: for EC50: ZIKV-infected Vero cells, MTT; for SI Vero: ratio of CC50 (Vero) to EC50
Description: After the determination of optimal noncytotoxic use concentrations, assays were performed, treating ZIKV-infected Vero cells with eight concentrations from the noncytotoxic concentrations for each sample. The results of the 50% effective concentration (EC50—concentration of the substance capable of reducing the viral cytopathic effect by 50%) and selectivity index (SI) are described in Table 2.
It was performed according to the methodology described by Brandão et al.. Sample stock solutions were prepared in DMSO (dimethyl sulfoxide) and evaluated at noncytotoxic concentrations. Vero cell monolayers were cultured in 96-well plates (6 × 10^4 cells per well). After 24 h of incubation in 5% CO2 at 37 °C, the culture medium (DMEM 5% SFB) was removed, and 100.0 μL of sample dilutions were added to each well along with 100.0 μL of the viral suspension. Then, the cultures were incubated in a humid atmosphere containing 5% CO2 at 37 °C for 72 h. Cell viability was assessed by the MTT colorimetric technique. The supernatant was removed, and then 28.0 μL of an MTT solution (2.0 mg/mL in PBS) was added to each well. The plates were incubated for 2 h at 37 °C, and after this incubation time, 132.0 μL DMSO was added to each well to dissolve the formazan crystals. The plates were stirred for 15 min (Shaker New Brunswick Scientific C24), and the optical density was determined at 490 nm (OD490) in a microplate reader.
The effective concentration that has 50% antiviral effect, or 50% effective concentration (EC50), is expressed as the concentration that promotes the protection of 50% of treated cells from destruction caused by the virus. The percentage of protection was calculated as [(AB)/CB)] × 100, where A, B, and C are the OD490 of the wells, in which are present treated and infected (A), untreated and infected (B), and untreated and non-infected cells (C), respectively.
Data from cytotoxicity and antiviral assays were evaluated according to their means and standard deviations. The cytotoxic concentration at 50% and the effective concentration at 50% were determined compared with the control obtained from nonlinear regression. These analyses were performed using the GraphPad Prism 5.04 statistical package® (GraphPad Software, Boston, MA, USA).

Zika virus [3] = assay: In vitro cytopathic effect inhibition assay in ZIKV-infected Vero cell monolayer; format: cell-based; settings: Vero cells, MOI = 1, treated after infection, quercetin 20 µg/mL, leaf extract 85 µg/mL, photographed after 48 h
Description: This can be seen by the destruction and morphological alterations of the cells, such as rounding of cells, formation of lumps, and changes in cell refringence, especially when compared with the uninfected and untreated cell monolayer (Figure 4A).
Figure 4 Antiviral effect against Zika virus in Vero cells treated with ethanol extract of leaves and quercetin. Vero cells were infected with ZIKV, treated with ethanol extract of leaves/quercetin, and photographed after 48 h of infection. (A) Uninfected and untreated cells, (B) infected cells, (C) cells uninfected and treated with ethanol extract of leaves (85 µg/mL), (D) cells infected and treated with ethanol extract of leaves (85 µg/mL), (E) cells uninfected and treated with quercetin (20 µg/mL), (F) cells infected and treated with quercetin (20 µg/mL). Magnification, 100x.
In order to confirm the anti-ZIKV activity observed in the antiviral MTT assay, the Vero cell monolayer (9.5 × 10^6 cells per well) was infected by viral suspensions with titers of 1.0 × 10^7 TCID50/mL, (MOI = 1), Zika virus, during 1 h for the viral adsorption. Afterwards, the viral suspension was removed and the wells were washed with PBS. Then, the wells were treated with the active concentration of the compound (20 μg/mL) and ethanolic extract of leaves of C. americana (85 μg/mL). […]

Vero cells = assay: Cytotoxicity evaluation by MTT assay in Vero cells; format: cell-based, African green monkey; settings: MTT, 72 h, n = 3
Description: as §1, §2, §3

MRC-5 cells = assay: Cytotoxicity evaluation by MTT assay in MRC-5 cells; format: cell-based, human; settings: MTT, 72 h, n = 3
Description: as §1, with “tissue). The results of CC50 are described in Table 2.” for “tissue).”
as §2
(§4) Data from cytotoxicity and antiviral assays were evaluated according to their means and standard deviations. The cytotoxic concentration at 50% and the effective concentration at 50% were determined compared with the control obtained from nonlinear regression. […]

[4] = as above; format: cell-based, human; settings: human
Description: as §1, with “tissue). The results of CC50 are described in Table 2.” for “tissue).”
as §2, §4

[5] = Zika virus, 72 h, n = 3, read-out: EC50 (converted)

O=c1c(O)c(-c2ccc(O)c(O)c2)oc2cc(O)cc(O)c12 [Quercetin]
CC50 at 72 h ([1]; MTT, 72 h, n = 3, read-out: CC50 Vero (converted)): 71.3 µg/mL and 236 µM | EC50 (Zika virus [2]; [5]): 18.6 µg/mL and 61.6 µM | EC50 (Zika virus [2]; Zika virus, read-out: EC50, inhibition of the viral cytopathic effect (abstract, unit inferred)): 18.6 ± 2.8 mg/L (≈ 61.5 µM) | SI Vero (Zika virus [2]): 3.8 | protection of ZIKV-infected cell monolayer from viral cytopathic effect (Zika virus [3]): protect the cells from a virus infection

Quercetin-3-O-hexosylgallate
CC50 (Vero cells): 496 µM | CC50 Vero (Vero cells): 305.6 ± 1.4 mg/L | CC50 (MRC-5 cells): > 162 µM | CC50 MRC-5 (MRC-5 cells): > 100 mg/L | SI MRC-5 (Zika virus [2]; ratio of CC50 (MRC-5) to EC50): >0.7 | SI Vero (Zika virus [2]): 2.0

NC(=O)c1ncn([C@@H]2O[C@H](CO)[C@@H](O)[C@H]2O)n1 [Ribavirin, reference compound]
CC50 at 72 h ([1]; Vero cells, MTT, 72 h, n = 3, read-out: CC50 Vero (converted)): 370.4 ± 1.2 mg/L (≈ 1520 µM) | EC50 (Zika virus [2]; [5]): 94.5 µg/mL and 387 µM

O=c1c(O[C@@H]2O[C@H](CO)[C@@H](O)[C@H](O)[C@H]2O)c(-c2ccc(O)c(O)c2)oc2cc(O)cc(O)c12 [Quercetin-3-O-glucoside]
CC50 at 72 h [1]: > 100 µg/mL and > 216 µM | CC50 at 72 h [4]: > 100 µg/mL and > 216 µM | EC50 (Zika virus [2]; 72 h, n = 3): Inactive | EC50 (Zika virus [2]; [5]): > 100 mg/L
